According to patent US20090215758A1, “Use of 2,5-Disubstituted Thiazol-4-One Derivatives in Drugs” (Gruenenthal GmbH, priority 2005, published 2009):
Counter-ions that a name gives are not always drawn.

What was measured:
[1] = biological target: T1, vanilloid receptor 1 (VR1/TRPV1) of the rat species (Rattus norvegicus, UniProt O35433); assay: Functional study on vanilloid receptor 1, FLIPR Ca2+ assay in rat dorsal root ganglia cells; type: cell-based; conditions: for inhibition at 10 µM: read-out: VR1 (rat) (% inhibition compared to 10 μM CP); for activation at 10 µM: read-out: VR1 (rat) (% stimulation compared to 10 μM CP); for EC50: unit inferred
T1 construct: The spinal column is removed from beheaded rats; from tissue; host or cells: primary cells from rat dorsal root ganglia (DRGs)
Method: The agonistic or antagonistic action of the substances to be studied on the vanilloid receptor 1 (VR1/TRPV1) of the rat species can be determined with the following assay. In this assay, the Ca^2+ current through the receptor channel is quantified with the aid of a Ca^2+-sensitive dye (Fluo-4 type, Molecular Probes Europe BV, Leiden the Netherlands) in a fluorescent imaging plate reader (FLIPR, Molecular Devices, Sunnyvale, USA).
Complete medium: 50 ml HAMS F12 Nutrient Mixture (Gibco Invitrogen GmbH, Karlsruhe, Germany) with 10% by volume of FCS (fetal calf serum, Gibco Invitrogen GmbH, Karlsruhe, Germany, heat-inactivated);
2 mM L-glutamine (Sigma, Munich, Germany);
1% by weight of AA solution (antibiotic/antimycotic solution, PAA, Pasching, Austria) and 25 ng/ml of NGF medium (2.5 S, Gibco Invitrogen GmbH, Karlsruhe, Germany)
Cell culture plate: poly-D-lysine-coated, black 96-hole plates with a clear bottom (96 well black/clear plate, BD Biosciences, Heidelberg, Germany) are additionally coated with laminin (Gibco Invitrogen GmbH, Karlsruhe, Germany) by diluting laminin to a concentration of 100 μg/ml with PBS (Ca—Mg-free PBS, Gibco Invitrogen GmbH, Karlsruhe, Germany). Aliquots having a concentration of 100 μg/ml of laminin are withdrawn and stored at −20° C. The aliquots are diluted with PBS in a ratio of 1:10 to 10 μg/ml of laminin and in each case 50 μl of the solution are pipetted into a well of the cell culture plate. The cell culture plates are incubated at 37° C. for at least two hours, the supernatant solution is removed by suction and the wells are each washed twice with PBS. The coated cell culture plates are stored with supernatant PBS which is not removed until directly before the application of the cells.
The spinal column is removed from beheaded rats and placed directly into cold HBSS buffer (Hank's buffered saline solution, Gibco Invitrogen GmbH, Karlsruhe, Germany), i.e. placed in an ice bath, which has been admixed with 1% by volume of an AA solution (antibiotic/antimycotic solution, PAA, Pasching, Austria). The spinal column is severed longitudinally and removed from the spinal canal together with fasciae. Subsequently, the dorsal root ganglia (DRGs) are removed and in turn stored in cold HBSS buffer admixed with 1% by volume of an AA solution. The DRGs freed completely of blood residues and spinal nerves are in each case transferred to 500 μl of cold type 2 collagenase (PAA, Pasching, Austria) and incubated at 37° C. for 35 minutes. […] After complete incubation, the enzyme solution is cautiously pipetted off and the remaining DRGs are each suspended with 500 μl of complete medium.
The DRGs are each suspended repeatedly, drawn through cannulas No. 1, No. 12 and No. 16 by means of a syringe and transferred to 50 ml Falcon tubes which are made up to 15 ml with complete medium. The contents of each Falcon tube are in each case filtered through a 70 μm Falcon filter insert and centrifuged at 1200 revolutions and room temperature for 10 minutes. The resulting pellet is in each case taken up in 250 μl of complete medium and the cell count is determined.
The number of cells in the suspension is adjusted to 3 times 10^5 per ml and in each case 150 μl of this suspension are added to one well of the cell culture plates coated as described above.
Subsequently, the cells are laden with 2 μM Fluo-4 and 0.01% by volume of Pluronic F127 (Molecular Probes Europe BV, Leiden, the Netherlands) in HBSS buffer (Hank's buffered saline solution, Gibco Invitrogen GmbH, Karlsruhe, Germany) at 37° C. for 30 min, washed 3× with HBSS buffer and, after a further incubation of 15 minutes, used in the FLIPR assay at room temperature for Ca^2+ measurement. The Ca^2+-dependent fluorescence is measured before and after addition of substances (λex=488 nm, λem=540 nm). The quantification is effected by the measurement of the highest fluorescence intensity (FC, fluorescence counts) over the time.

VR1 (human) = biological target: T2, VR1 (human) (Homo sapiens, UniProt Q8NER1); assay: Functional study on vanilloid receptor (VR1), FLIPR Ca2+ assay in CHO K1 cells stably transfected with the VR1 gene; type: cell-based; conditions: for inhibition at 10 µM / activation at 10 µM: CHO-K1, test compound 10 μM; for activation at 10 µM: read-out: VR1 (human) (% stimulation compared to 10 μM CP); for EC50: unit inferred
T2 construct: expressed in transfected cells; host or cells: CHO K1 cells (ECACC), stably transfected
Text: The agonistic or antagonistic action of the substances to be tested on vanilloid receptor (VR1) can also be determined with the assay which follows. In this assay, the Ca^2+ current through the channel is quantified with the aid of a Ca^2+-sensitive dye (Fluo-4 type, Molecular Probes, Europe BV, Leiden, the Netherlands) in a fluorescent imaging plate reader (FLIPR, Molecular Devices, Sunnyvale, USA).
Chinese hamster ovary cells (CHO K1 cells, European Collection of Cell Cultures (ECACC) Great Britain) are transfected stably with the VR1 gene. For functional studies, these cells are plated out onto poly-D-lysine-coated black 96-well plates with a clear bottom (BD Biosciences, Heidelberg, Germany) in a density of 25 000 cells/well. The cells are incubated overnight at 37° C. and 5% CO2 in a culture medium (Ham's Nutrient Mixture F12, 10% by volume of FCS (fetal calf serum), 18 μg/ml of L-proline). The next day, the cells are incubated with Fluo-4 (Fluo-4 2 μM, Pluronic F127 0.01% by volume, Molecular Probes in HBSS (Hank's buffered saline solution), Gibco Invitrogen GmbH, Karlsruhe, Germany) at 37° C. for 30 minutes. Subsequently, the plates are washed 3 times with HBSS buffer and, after a further incubation of 15 minutes at room temperature, used for Ca^2+ measurement in FLIPR. The Ca^2+-dependent fluorescence is measured before and after addition of the substances to be studied (wavelength λex=488 nm, λem=540 nm). The quantification is effected by measuring the highest fluorescence intensity (FC, fluorescence counts) over the time.
The FLIPR protocol consists of 2 substance additions. First, the substances to be tested (10 μM) are pipetted onto the cells and the Ca current is compared with the control (capsaicin 10 μM) (% activation based on the Ca^2+ signal after addition of 10 μM capsaicin). After incubation for 5 minutes, 100 nM capsaicin is applied and the current of Ca^2+ is likewise determined.

[2] = test compound 10 μM, 5 min incubation, then 100 nM capsaicin, relative to maximum inhibition with 10 μM capsaicin
[3] = test compound 10 μM, Ca2+ signal relative to 10 μM capsaicin (CP)
[4] = 5 min incubation, then 100 nM capsaicin, compared to 10 μM CP
[5] = Ca2+ signal relative to 10 μM capsaicin (CP)

T2 sequence (Q8NER1 whole entry): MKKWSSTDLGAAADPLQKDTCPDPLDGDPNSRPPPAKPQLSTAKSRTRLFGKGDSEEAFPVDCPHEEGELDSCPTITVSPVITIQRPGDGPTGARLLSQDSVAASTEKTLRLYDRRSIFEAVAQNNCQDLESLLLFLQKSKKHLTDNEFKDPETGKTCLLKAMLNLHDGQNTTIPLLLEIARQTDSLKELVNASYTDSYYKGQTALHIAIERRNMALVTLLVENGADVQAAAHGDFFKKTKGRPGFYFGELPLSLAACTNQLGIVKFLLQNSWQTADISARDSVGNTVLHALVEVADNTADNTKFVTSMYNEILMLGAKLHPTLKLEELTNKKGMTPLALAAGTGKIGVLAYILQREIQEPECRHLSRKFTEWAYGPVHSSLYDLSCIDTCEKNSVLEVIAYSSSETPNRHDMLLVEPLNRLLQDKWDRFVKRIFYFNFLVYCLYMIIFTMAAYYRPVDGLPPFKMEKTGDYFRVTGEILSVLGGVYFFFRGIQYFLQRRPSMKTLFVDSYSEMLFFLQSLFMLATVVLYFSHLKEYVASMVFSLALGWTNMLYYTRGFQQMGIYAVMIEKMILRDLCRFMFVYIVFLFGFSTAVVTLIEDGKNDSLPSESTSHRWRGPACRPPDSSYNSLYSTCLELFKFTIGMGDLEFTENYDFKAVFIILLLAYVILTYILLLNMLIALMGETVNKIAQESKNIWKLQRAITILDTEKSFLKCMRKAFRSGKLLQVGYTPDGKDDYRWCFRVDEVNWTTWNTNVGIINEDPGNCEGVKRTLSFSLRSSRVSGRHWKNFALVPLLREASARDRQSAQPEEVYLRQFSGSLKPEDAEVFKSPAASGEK
T1 sequence (O35433 whole entry): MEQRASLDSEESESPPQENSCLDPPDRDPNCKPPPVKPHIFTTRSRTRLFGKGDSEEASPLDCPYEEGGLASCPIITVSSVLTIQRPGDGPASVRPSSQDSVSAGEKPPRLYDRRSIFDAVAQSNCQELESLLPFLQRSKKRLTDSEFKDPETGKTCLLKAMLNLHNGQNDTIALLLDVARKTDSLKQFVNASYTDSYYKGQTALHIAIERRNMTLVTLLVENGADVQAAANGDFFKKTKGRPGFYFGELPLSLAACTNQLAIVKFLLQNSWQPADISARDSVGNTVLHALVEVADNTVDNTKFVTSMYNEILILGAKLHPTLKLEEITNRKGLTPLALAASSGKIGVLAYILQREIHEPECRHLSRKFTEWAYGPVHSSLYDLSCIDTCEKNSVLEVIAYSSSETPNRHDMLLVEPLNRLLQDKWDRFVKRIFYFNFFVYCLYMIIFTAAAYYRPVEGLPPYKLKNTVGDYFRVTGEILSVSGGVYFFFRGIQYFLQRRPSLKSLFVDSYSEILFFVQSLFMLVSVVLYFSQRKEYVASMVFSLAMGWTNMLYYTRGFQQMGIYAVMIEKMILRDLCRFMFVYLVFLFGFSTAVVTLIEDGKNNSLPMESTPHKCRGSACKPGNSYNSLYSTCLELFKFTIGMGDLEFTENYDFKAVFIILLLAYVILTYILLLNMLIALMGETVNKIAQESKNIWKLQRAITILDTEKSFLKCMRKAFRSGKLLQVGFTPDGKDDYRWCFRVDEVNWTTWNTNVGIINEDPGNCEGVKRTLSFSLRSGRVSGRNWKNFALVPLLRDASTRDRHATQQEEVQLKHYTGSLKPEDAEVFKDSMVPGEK

| SMILES | inhibition at 10 µM [1, 2] [%] | activation at 10 µM [1, 3] [%] | EC50 [1] [µM] | inhibition at 10 µM (VR1 (human); [4]) [%] | activation at 10 µM (VR1 (human); [5]) [%] | EC50 (VR1 (human)) [µM] | VR1 (rat) (% inhibition compared to 10 μM CP) [1, 2] [%] | VR1 (rat) (% stimulation compared to 10 μM CP) [1, 3] [%] | VR1 (human) (% inhibition compared to 10 μM CP) (VR1 (human); test compound 10 μM, 5 min incubation, then 100 nM capsaicin, compared to 10 μM CP) [%] | VR1 (human) (% stimulation compared to 10 μM CP) (VR1 (human); [3]) [%] |
| --- | --- | --- | --- | --- | --- | --- | --- | --- | --- | --- |
| O=C1N=C(N2CCSCC2)SC1=Cc1ccc(OC(F)(F)F)cc1 [Example 24, 2-thiomorpholin-4-yl-5-(4-trifluoromethoxybenzylidene)thiazol-4-one] | 91.3 | 110 | 11.9 | 61.6 | 61.3 | > 25 |  |  |  |  |
| O=C1N=C(N2CCSCC2)SC1=Cc1cccc(C(=O)N2CCN(c3ncc(C(F)(F)F)cc3Cl)CC2)c1 [Example 113, 5-{3-[4-(3-chloro-5-trifluoromethylpyridin-2-yl)piperazine-1-carbonyl]-benzylidene}-2-thiomorpholin-4-ylthiazol-4-one] | 97.4 | 136 |  | 97.8 | 90.3 |  |  |  |  |  |
| COc1ccc(C=C2SC(N3CCOCC3)=NC2=O)cc1OCc1ccccc1 [Example 13, 5-(3-benzyloxy-4-methoxybenzylidene)-2-morpholin-4-ylthiazol-4-one] | 46.2 | 42.1 |  | 11.1 | 6.15 |  |  |  |  |  |
| O=C1N=C(N2CCOCC2)SC1=Cc1ccc(OS(=O)(=O)c2ccccc2)cc1 [Example 234, benzenesulfonic acid 4-(2-morpholin-4-yl-4-oxo-4H-thiazol-5-ylidenemethyl)phenyl ester] | 98.1 | 57.9 |  | 27.8 | 46.1 |  |  |  |  |  |
| O=C1N=C(N2CCOCC2)SC1=Cc1cccc(C(F)(F)F)c1 [Example 206, 2-morpholin-4-yl-5-(3-trifluoromethylbenzylidene)thiazol-4-one] |  |  |  |  |  |  | 102.30 | 76.51 | 95.06 | 77.26 |
| O=C1N=C(N2CCSCC2)SC1=Cc1ccccc1 [Example 42, 5-benzylidene-2-thiomorpholin-4-ylthiazol-4-one] | 93.1 | 98.3 |  | 50.2 | 49.7 |  |  |  |  |  |

Further lines, results first:

| inhibition at 10 µM [1, 2] [%] | activation at 10 µM [1, 3] [%] | EC50 [1] [µM] | inhibition at 10 µM (VR1 (human); [4]) [%] | activation at 10 µM (VR1 (human); [5]) [%] | EC50 (VR1 (human)) [µM] | VR1 (rat) (% inhibition compared to 10 μM CP) [1, 2] [%] | VR1 (rat) (% stimulation compared to 10 μM CP) [1, 3] [%] | VR1 (human) (% inhibition compared to 10 μM CP) (VR1 (human); test compound 10 μM, 5 min incubation, then 100 nM capsaicin, compared to 10 μM CP) [%] | VR1 (human) (% stimulation compared to 10 μM CP) (VR1 (human); [3]) [%] | SMILES |
| --- | --- | --- | --- | --- | --- | --- | --- | --- | --- | --- |
| 64.3 | 39.6 |  | 34.3 | 10.9 |  |  |  |  |  | CC(=CC=C1SC(N2CCOCC2)=NC1=O)c1cccc(C(F)(F)F)c1 [Example 44, 2-morpholin-4-yl-5-[3-(3-trifluoromethylphenyl)but-2-enylidene]thiazol-4-one] |
| 101 | 67.7 |  | 68.8 | 47.4 |  |  |  |  |  | O=C1N=C(N2CCOCC2)SC1=Cc1ccc(OC(F)(F)F)cc1 [Example 36, 2-morpholin-4-yl-5-(4-trifluoromethoxybenzylidene)thiazol-4-one] |
| 88 | 101 |  | 89.3 | 111 |  |  |  |  |  | CC(=CC=C1SC(N2CCOCC2)=NC1=O)c1ccc(C(C)(C)C)cc1 [Example 34, 5-[3-(4-tert-butylphenyl)but-2-enylidene]-2-morpholin-4-ylthiazol-4-one] |
| 4.84 | 16 | 14.3 | 0.61 | 12.2 | 26.5 |  |  |  |  | COc1ccc(C=C2SC(N3CCOCC3)=NC2=O)cc1 [Example 228, 5-(4-methoxybenzylidene)-2-morpholin-4-ylthiazol-4-one] |
| 13.7 | 123 |  | 44.5 | 73.9 |  |  |  |  |  | CN(C)c1ccc(C=C2SC(N3CCOCC3)=NC2=O)cc1 [Example 235, 5-(4-dimethylaminobenzylidene)-2-morpholin-4-ylthiazol-4-one] |
| 46.2 | 31.4 | > 25 | 2.12 | 17.5 | > 25 |  |  |  |  | CC(C)(C)c1ccc(C=C2SC(N3CCCCCC3)=NC2=O)cc1 [Example 200, 2-azepan-1-yl-5-(4-tert-butylbenzylidene)thiazol-4-one hydrobromide] |
